A word on the IC50: it is the midpoint of a concentration-inhibition curve. Low readings indicate greater potency, high ones weaker potency.

Here are results for 2 compounds from patent CN116323625A, “杂环类衍生物、其制备方法及其医药上的用途” (Zhejiang Hisun Pharmaceutical Co Ltd, priority 2021, dated 2023).

Each structure is given as a SMILES string.

The test has as its target T1, KRAS G12D:RAF1 protein interaction [KRAS G12D:RAF1蛋白相互作用] (Homo sapiens, UniProt P01116, G12D).
T1 construct: purchased Cisbio 63ADK000CB21PEG
Briefly: Inhibition of the KRAS G12D:RAF1 protein interaction (TR-FRET binding assay). The following applies: in vitro, 10000nM-0.1nM, 4 h at room temperature. For orientation: Time-resolved FRET reads energy transfer from a long-lived donor to a nearby acceptor.

T1 sequence (P01116 1-188 isoform P01116-2 G12D): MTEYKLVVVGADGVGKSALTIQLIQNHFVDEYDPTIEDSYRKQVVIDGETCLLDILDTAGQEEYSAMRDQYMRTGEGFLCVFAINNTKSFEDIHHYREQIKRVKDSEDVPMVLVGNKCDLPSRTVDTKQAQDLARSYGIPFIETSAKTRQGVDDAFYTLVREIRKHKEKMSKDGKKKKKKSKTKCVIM

As for `OCCN1C2CCC1CN(c1nc(OC[C@@]34CCCN3C[C@H](F)C4)nc3c(F)c(-c4cc(O)cc5cccc(F)c45)ncc13)C2` [实施例2, 5-fluoro-4-(8-fluoro-2-(((2R,7aS)-2-fluorotetrahydro-1H-pyrrolizin-7a(5H)-yl)methoxy)-4-(8-(2-hydroxyethyl)-3,8-diazabicyclo[3.2.1]octan-3-yl)pyrido[4,3-d]pyrimidin-7-yl)naphthalen-2-ol], the IC50 amounted to 0.189 µM.
`O=C([C@H]1CCCN1)N1C2CCC1CN(c1nc(OC[C@@]34CCCN3C[C@H](F)C4)nc3c(F)c(-c4cc(O)cc5cccc(F)c45)ncc13)C2` [实施例3, 4-(8-(D-prolyl)-3,8-diazabicyclo[3.2.1]octan-3-yl)-8-fluoro-7-(8-fluoro-3-hydroxynaphthalen-1-yl)-2-(((2R,7aS)-2-fluorotetrahydro-1H-pyrrolizin-7a(5H)-yl)methoxy)pyrido[4,3-d]pyrimidine]: the IC50 was determined as 0.114 µM.
